Where “and” joins values, the source holds several entries; their conditions need not be identical. Identical values can stand only once.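 96-well plates; 48 h exposure; 5 concentrations. Endpoints by linear interpolation between flanking doses. Not reached: highest tested concentration assigned. At the GI50, growth is halved. TGI marks complete inhibition of growth.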

Among the test systems are ACHN renal; CCRF-CEM leukemia; K-562 leukemia; M14 melanoma; OVCAR-4 ovarian; OVCAR-5 ovarian; SK-OV-3 ovarian; TK-10 renal; UACC-257 melanoma; UACC-62 melanoma.
Assay in all cases: inhibition of tumour cell growth, NCI panel, 48 h

Take `O=S(=O)(NC1=NCCN1C(=S)SN1CCn2c1nsc2=S)c1cccc2ccccc12`: the GI50 in the assay with ACHN renal is 27.5 µM; in the assay on CCRF-CEM leukemia, 2.5 µM; with K-562 leukemia, 16.1 µM; in the assay on M14 melanoma it was 24.6 µM; in the assay on OVCAR-4 ovarian it was 29.2 µM; in the assay on OVCAR-5 ovarian, 61 µM. Further, the GI50 was 31.1 µM in the assay with SK-OV-3 ovarian, 21.4 µM in the assay with TK-10 renal, 24.3 µM in the assay on UACC-257 melanoma and 21 µM in the assay on UACC-62 melanoma. For the same compound, the TGI in the assay on ACHN renal is over 100 µM; in the assay with CCRF-CEM leukemia, over 100 µM; with K-562 leukemia, 44.6 µM; with M14 melanoma it was over 100 µM; in the assay with OVCAR-4 ovarian, over 100 µM; in the assay on OVCAR-5 ovarian it was over 100 µM. The TGI was found to be 91.5 µM in the assay on SK-OV-3 ovarian, 64.8 µM in the assay with TK-10 renal, 97.2 µM with UACC-257 melanoma and 71.6 µM in the assay on UACC-62 melanoma.

With `O=c1/c(=C/c2ccccc2[N+](=O)[O-])sc2nc3ccccc3n12`, the TGI is over 46.4 µM in the assay on ACHN renal; 22.7 µM in the assay with CCRF-CEM leukemia; over 46.4 µM with K-562 leukemia; over 46.4 µM in the assay with M14 melanoma; over 46.4 µM in the assay on OVCAR-4 ovarian; over 46.4 µM with OVCAR-5 ovarian. For the same compound, the TGI was over 31.6 µM in the assay with SK-OV-3 ovarian, over 46.4 µM in the assay on TK-10 renal, over 46.4 µM with UACC-257 melanoma and over 100 µM with UACC-62 melanoma.

As to `COc1ccc(/C=C/C(=O)/C=C/c2cc3ccccc3[nH]c2=O)cc1`, the GI50 is 3.81 µM in the assay on ACHN renal; 2.98 µM with CCRF-CEM leukemia; 3.34 µM in the assay on K-562 leukemia; 2.8 µM in the assay with M14 melanoma; 9.73 µM in the assay on OVCAR-4 ovarian; 5.13 µM with OVCAR-5 ovarian. Moreover, the GI50 in the assay on SK-OV-3 ovarian is 9.22 µM; with TK-10 renal it was 5.45 µM; in the assay with UACC-257 melanoma, 10.8 µM; in the assay with UACC-62 melanoma it was 2.43 µM. Further, the TGI in the assay on ACHN renal is 15.5 µM; with CCRF-CEM leukemia, 9.68 µM; in the assay with K-562 leukemia it was over 100 µM; with M14 melanoma it was 8.92 µM; in the assay with OVCAR-4 ovarian it was over 100 µM; with OVCAR-5 ovarian, 19.9 µM. In addition, the TGI with SK-OV-3 ovarian turned out to be 26.7 µM; in the assay with TK-10 renal, 17.4 µM; in the assay on UACC-257 melanoma, 25.3 µM; in the assay with UACC-62 melanoma, 9.41 µM.

`Cc1ccc(NC(=O)CCc2nc(N)nc(N)c2-c2ccccc2)cc1C`: the TGI in the assay on ACHN renal, in the assay with CCRF-CEM leukemia, in the assay with K-562 leukemia, in the assay on M14 melanoma, in the assay with OVCAR-4 ovarian and in the assay with OVCAR-5 ovarian was over 100 µM throughout. Besides, the TGI in the assay on SK-OV-3 ovarian, in the assay with TK-10 renal, with UACC-257 melanoma and in the assay on UACC-62 melanoma was over 100 µM throughout.

Regarding `CC1CCC2(NC1)OC1CC3C4CC=C5CC(O)CCC5(C)C4CCC3(C)C1C2C` (configuration not stated), the GI50 is 29.8 µM and 11.1 µM in the assay with ACHN renal; 22.3 µM and 5.29 µM with OVCAR-4 ovarian. Further, the TGI with ACHN renal is 91.7 µM and 30 µM; with CCRF-CEM leukemia it was 40 µM and 41.5 µM; with K-562 leukemia, over 100 µM; with M14 melanoma, over 100 µM; in the assay with OVCAR-4 ovarian, 58.8 µM and 53.7 µM; in the assay on OVCAR-5 ovarian it was over 100 µM. Further, the TGI is 69.2 µM and 38.6 µM in the assay with SK-OV-3 ovarian; 47.9 µM and 44.7 µM in the assay on TK-10 renal; over 100 µM with UACC-257 melanoma; 65.1 µM and 50.4 µM with UACC-62 melanoma.

In the case of `CC1=Nc2c(ccc3c2C(=O)c2ccccc2C3=O)NC(c2cccc3c2CCC3)C1` (configuration not stated), the TGI in the assay with ACHN renal, in the assay on CCRF-CEM leukemia, in the assay with K-562 leukemia, in the assay with M14 melanoma, in the assay with OVCAR-4 ovarian and with OVCAR-5 ovarian was over 100 µM throughout. In addition, the TGI in the assay on SK-OV-3 ovarian, in the assay on TK-10 renal, with UACC-257 melanoma and in the assay on UACC-62 melanoma was over 100 µM in each case.

For the compound `Cc1ncc(C(=O)Nc2ccc(CN3CCN(C)CC3)c(C(F)(F)F)c2)cc1C#Cc1cnc2cccnn12`, the GI50 in the assay with ACHN renal was 0.287 µM; with CCRF-CEM leukemia, 0.199 µM; in the assay with K-562 leukemia it was 0.005 µM; in the assay with M14 melanoma it was 0.163 µM; with OVCAR-4 ovarian it was 0.205 µM; in the assay on OVCAR-5 ovarian it was 0.335 µM. The GI50 in the assay on SK-OV-3 ovarian is 1.63 µM; in the assay on TK-10 renal, 0.797 µM; in the assay on UACC-257 melanoma, 0.531 µM; in the assay with UACC-62 melanoma, 0.28 µM. The TGI in the assay with ACHN renal was 1.53 µM; with CCRF-CEM leukemia, 20.7 µM; in the assay with K-562 leukemia, 50 µM; in the assay on M14 melanoma, 0.732 µM; in the assay with OVCAR-4 ovarian it was 1.98 µM; with OVCAR-5 ovarian it was 5.84 µM. In addition, the TGI in the assay on SK-OV-3 ovarian is 7.19 µM; with TK-10 renal, 5.81 µM; with UACC-257 melanoma, 4.43 µM; with UACC-62 melanoma, 1.32 µM.

With `COc1ccc(OC)c(NC(=O)CCC/C(CC(=O)c2ccc(O)c(OC)c2)=N\Nc2nnc(C)n2N)c1`, the TGI in the assay with ACHN renal, with CCRF-CEM leukemia, in the assay on K-562 leukemia, with M14 melanoma, with OVCAR-4 ovarian and in the assay with OVCAR-5 ovarian was over 100 µM throughout. Further, the TGI in the assay on SK-OV-3 ovarian, in the assay on TK-10 renal, in the assay with UACC-257 melanoma and in the assay with UACC-62 melanoma was over 100 µM in each case.

As for `Cc1nc(N)nc2c1CCC(O)S2` (configuration not stated), the GI50 was 22 µM in the assay on ACHN renal; 4.29 µM in the assay with CCRF-CEM leukemia; 5.18 µM in the assay on K-562 leukemia; 8.44 µM in the assay with M14 melanoma; 3.26 µM with OVCAR-4 ovarian; 20.7 µM in the assay with OVCAR-5 ovarian. Moreover, the GI50 in the assay on SK-OV-3 ovarian was 11.3 µM; in the assay on TK-10 renal it was 32.1 µM; with UACC-257 melanoma, 12.9 µM; in the assay with UACC-62 melanoma it was 11.3 µM. Further, the TGI with ACHN renal is over 100 µM; in the assay on CCRF-CEM leukemia, 69.1 µM; with K-562 leukemia, over 100 µM; in the assay on M14 melanoma it was 31.6 µM; with OVCAR-4 ovarian it was 14.2 µM; in the assay on OVCAR-5 ovarian, 74.3 µM. For the same compound, the TGI is 25.6 µM with SK-OV-3 ovarian, over 100 µM in the assay with TK-10 renal, 47.1 µM in the assay with UACC-257 melanoma and 25.8 µM in the assay with UACC-62 melanoma.

Turning to `Cc1nn[n-]n1.N.N.N.N.N.[Cl-].[Co+3]`, the GI50 with ACHN renal, in the assay on CCRF-CEM leukemia, in the assay with K-562 leukemia, in the assay with M14 melanoma, with OVCAR-4 ovarian and with OVCAR-5 ovarian was over 100 µM each time. Besides, the GI50 with SK-OV-3 ovarian, in the assay with TK-10 renal, in the assay with UACC-257 melanoma and with UACC-62 melanoma was over 100 µM in each case. Also, the TGI in the assay on ACHN renal, in the assay with CCRF-CEM leukemia, with K-562 leukemia, in the assay with M14 melanoma, with OVCAR-4 ovarian and in the assay on OVCAR-5 ovarian was over 100 µM each time. The TGI with SK-OV-3 ovarian, with TK-10 renal, with UACC-257 melanoma and with UACC-62 melanoma was over 100 µM in each case.

The record behind these values is PubChem BioAssay (NCI).
